Patent US11717508B2, “Compounds, compositions, and methods for inhibiting bacterial growth” (priority 2016, dated 2023)
Values joined by “and” are separate entries in the source; they are usually repeats but may differ in a detail not shown here. Identical values can stand only once. Like-named read-outs stand apart in the source and are kept apart here.

Tested on: DosRST regulon
Assay type: cell-based
Settings: for Counts per million (CPM) WT_HC103A: replicates 1, 2

## O=C(Nc1cccc(O)c1)c1cccc(NC(=O)c2cccs2)c1 [HC103A, N-[3-[(3 hydroxyphenyl)carbamoyl]phenyl]thiophene-2-carboxamide]
40 μM, 6 days, >2-fold, p<0.05
  genes downregulated by compound (total): 90 genes
CDC1551, 40 μM, 6 days
  downregulation of tgs1 gene (transcriptional profiling): ~180 fold
Gene MT36S5 Rv3551
  WT DMSO/WT HC103A fold change: 0.4042
  log2 Fold change: −1.307
Gene MT0086 Rv0079
  WT DMSO/WT HC103A fold change: 0.2341
  log2 Fold change: −2.095
Gene MT0087 Rv0080
  WT DMSO/WT HC103A fold change: 0.2783
  log2 Fold change: −1.845
Gene MT0207 Rv0197
  WT DMSO/WT HC103A fold change: 3.65
  log2 Fold change: 1.868
Gene MT0337 Rv0322 udgA
  WT DMSO/WT HC103A fold change: 2.459
  log2 Fold change: 1.298
Gene MT0468 Rv0452
  WT DMSO/WT HC103A fold change: 2.465
  log2 Fold change: 1.301
Gene MT0491 Rv0474
  WT DMSO/WT HC103A fold change: 2.323
  log2 Fold change: 1.216
Gene MT0585 Rv0559c
  WT DMSO/WT HC103A fold change: 5.989
  log2 Fold change: 2.582
Gene MT0586 Rv0560c
  WT DMSO/WT HC103A fold change: 282
  log2 Fold change: 8.139
Gene MT0595 Rv0569
  WT DMSO/WT HC103A fold change: 0.1236
  log2 Fold change: −3.016
Gene MT0596 Rv0570 nrdZ
  WT DMSO/WT HC103A fold change: 0.02807
  log2 Fold change: −5.155
  Counts per million (CPM) WT_HC103A: 73.81 CPM and 59.09 CPM
Gene MT0597 Rv0571c
  WT DMSO/WT HC103A fold change: 0.1705
  log2 Fold change: −2.552
  Counts per million (CPM) WT_HC103A: 71.16 CPM and 45.13 CPM
Gene MT0598
  WT DMSO/WT HC103A fold change: 0.1036
  log2 Fold change: −3.27
  Counts per million (CPM) WT_HC103A: 38.26 CPM and 19.74 CPM
Gene MT0599 Rv0572c
  WT DMSO/WT HC103A fold change: 0.05128
  log2 Fold change: −4.028
  Counts per million (CPM) WT_HC103A: 49.68 CPM and 34.61 CPM
Gene MT0600
  WT DMSO/WT HC103A fold change: 0.02301
  log2 Fold change: −5.442
  Counts per million (CPM) WT_HC103A: 44.59 CPM and 9.221 CPM
Gene MT0601 Rv0573c
  WT DMSO/WT HC103A fold change: 0.1124
  log2 Fold change: −3.153
  Counts per million (CPM) WT_HC103A: 11.49 CPM and 9.546 CPM
Gene MT0602 Rv0574c
  WT DMSO/WT HC103A fold change: 0.05787
  log2 Fold change: −4.111
  Counts per million (CPM) WT_HC103A: 26.39 CPM and 16.69 CPM
Gene MT0808 Rv0784
  WT DMSO/WT HC103A fold change: 4.409
  log2 Fold change: 2.141
Gene MT0846 Rv0824c desA1
  WT DMSO/WT HC103A fold change: 0.3753
  log2 Fold change: −1.414
  Counts per million (CPM) WT_HC103A: 2,581.69 CPM and 3,416.39 CPM
Gene MT0910 Rv0887c
  WT DMSO/WT HC103A fold change: 2.543
  log2 Fold change: 1.346
Gene MT1095 Rv1065
  WT DMSO/WT HC103A fold change: 0.3758
  log2 Fold change: −1.412
  Counts per million (CPM) WT_HC103A: 198.5 CPM and 168.6 CPM
Gene MT1126 Rv1094 desA2
  WT DMSO/WT HC103A fold change: 0.3586
  log2 Fold change: −1.44
  Counts per million (CPM) WT_HC103A: 2,249.03 CPM and 2,771.69 CPM
Gene MT1294 Rv1255c
  WT DMSO/WT HC103A fold change: 3.371
  log2 Fold change: 1.753
Gene MT1322 Rv1284
  WT DMSO/WT HC103A fold change: 0.3386
  log2 Fold change: −1.562
  Counts per million (CPM) WT_HC103A: 223.7 CPM and 205.3 CPM
Gene MT1608 Rv1557 mmpL6
  WT DMSO/WT HC103A fold change: 8.81
  log2 Fold change: 3.139
Gene MT1692 Rv1654 argB
  WT DMSO/WT HC103A fold change: 0.2745
  log2 Fold change: −1.865
  Counts per million (CPM) WT_HC103A: 176.3 CPM and 60.13 CPM
Gene MT1693 Rv1655 argD
  WT DMSO/WT HC103A fold change: 0.2592
  log2 Fold change: −1.948
  Counts per million (CPM) WT_HC103A: 135.1 CPM and 51.69 CPM
Gene MT1694 Rv1656 argF
  WT DMSO/WT HC103A fold change: 0.214
  log2 Fold change: −2.224
  Counts per million (CPM) WT_HC103A: 115.2 CPM and 42.01 CPM
Gene MT1774 Rv1733c
  WT DMSO/WT HC103A fold change: 0.01521
  log2 Fold change: −6.039
  Counts per million (CPM) WT_HC103A: 40.51 CPM and 8.961 CPM
Gene MT1775
  WT DMSO/WT HC103A fold change: 0.1012
  log2 Fold change: −3.305
  Counts per million (CPM) WT_HC103A: 101.9 CPM and 24.16 CPM
Gene MT1776 Rv1735c
  WT DMSO/WT HC103A fold change: 0.2125
  log2 Fold change: −2.234
  Counts per million (CPM) WT_HC103A: 4.991 CPM and 2.922 CPM
Gene MT1777
  WT DMSO/WT HC103A fold change: 0.02322
  log2 Fold change: −5.428
  Counts per million (CPM) WT_HC103A: 5.142 CPM and 2.013 CPM
Gene MT1778 Rv1736c narX
  WT DMSO/WT HC103A fold change: 0.0157
  log2 Fold change: −5.993
  Counts per million (CPM) WT_HC103A: 122.3 CPM and 26.17 CPM
Gene MT1779 Rv1737c narK2
  WT DMSO/WT HC103A fold change: 0.01434
  log2 Fold change: −6.124
  Counts per million (CPM) WT_HC103A: 36.9 CPM and 14.55 CPM
Gene MT1780 Rv1738
  WT DMSO/WT HC103A fold change: 0.01855
  log2 Fold change: −5.752
  Counts per million (CPM) WT_HC103A: 133.5 CPM and 33.12 CPM
Gene MT1823 (Rv1773c)
  WT DMSO/WT HC103A fold change: 0.36
  log2 Fold change: −1.434
Gene MT1823 Rv1773c
  Counts per million (CPM) WT_HC103A: 222.7 CPM and 163.7 CPM
Gene MT1851 Rv1813c
  WT DMSO/WT HC103A fold change: 0.01771
  log2 Fold change: −5.819
  Counts per million (CPM) WT_HC103A: 58.53 CPM and 24.74 CPM
Gene MT1860 Rv1812c
  WT DMSO/WT HC103A fold change: 0.3778
  log2 Fold change: −1.404
  Counts per million (CPM) WT_HC103A: 78.19 CPM and 78.7 CPM
Gene MT1882 (Rv1834)
  WT DMSO/WT HC103A fold change: 0.3504
  log2 Fold change: −1.472
Gene MT1882 Rv1834
  Counts per million (CPM) WT_HC103A: 28.36 CPM and 29.22 CPM
Gene MT1986 (Rv1936)
  WT DMSO/WT HC103A fold change: 0.2546
  log2 Fold change: −1.918
Gene MT1986 Rv1936
  Counts per million (CPM) WT_HC103A: 72.29 CPM and 31.56 CPM
Gene MT1987 (Rv1937)
  WT DMSO/WT HC103A fold change: 0.2435
  log2 Fold change: −2.038
Gene MT1987 Rv1937
  Counts per million (CPM) WT_HC103A: 83.71 CPM and 36.75 CPM
Gene MT1988 Rv1938 ephB
  WT DMSO/WT HC103A fold change: 0.2508
  log2 Fold change: −1.995
  Counts per million (CPM) WT_HC103A: 32.14 CPM and 15.97 CPM
Gene MT1989 (Rv1939)
  WT DMSO/WT HC103A fold change: 0.2883
  log2 Fold change: −1.794
Gene MT1989 Rv1939
  Counts per million (CPM) WT_HC103A: 16.33 CPM and 8.831 CPM
Gene MT2016 (Rv1964)
  WT DMSO/WT HC103A fold change: 0.2736
  log2 Fold change: −1.87
Gene MT2016 Rv1964
  Counts per million (CPM) WT_HC103A: 93.32 CPM and 56.95 CPM
Gene MT2017
  WT DMSO/WT HC103A fold change: 0.1841
  log2 Fold change: −2.441
  Counts per million (CPM) WT_HC103A: 44.46 CPM and 29.87 CPM
Gene MT2018 (Rv1966 mce3)
  WT DMSO/WT HC103A fold change: 0.194
  log2 Fold change: −2.366
Gene MT2018 Rv1966 mce3
  Counts per million (CPM) WT_HC103A: 54.83 CPM and 33.77 CPM
